{"source": "patent US10517889B2", "about": "“Modulators of SMAD7 expression” (Ionis Pharmaceuticals, Inc., priority 2017, dated 2019)", "note": "Strand notation (5' to 3'): a small letter for the sugar, then the base; units joined by * are phosphorothioate-linked, units joined directly phosphodiester-linked; [ ] holds rarer units or linkages, { } end groups; capitals alone tell only the bases. k = constrained ethyl (cEt); [5mC] = 5-methylcytosine; d = 2'-deoxy (DNA)"}
{"system": "human SMAD7 mRNA", "assay": "Antisense inhibition of human SMAD7 mRNA expression in Hep3B cells by 3-10-3 cEt gapmers, 10,000 nM, electroporation (Example 2)", "assay_type": "cell-based", "settings": "Hep3B cells, electroporation with 10,000 nM antisense oligonucleotide, approximately 24 hours, RTS5062, percent inhibition of SMAD7 mRNA relative to untreated control cells", "outline": "(§1)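 qRT-PCR (RTS5062) of SMAD7 mRNA, normalised to RIBOGREEN total RNA, gave percent inhibition relative to untreated controls. Hep3B cells at 20,000 per well received 10,000 nM oligonucleotide by electroporation, with ~24 h treatment.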", "units": {"% Inhibition": "%"}}
{"substance": "799526 (kA*kA*kG*dG*dA*dG*dG*dT*dT*dT*dG*dG*dG*kT*kT*kG; antisense) [compound 799526]", "% Inhibition": 12}
{"substance": "799527 (kG*kT*k[5mC]*dA*dA*dA*dG*dG*dA*dG*dG*dT*dT*kT*kG*kG; antisense) [compound 799527]", "% Inhibition": 4}
{"substance": "799528 (k[5mC]*kG*kG*dA*dT*dA*d[5mC]*d[5mC]*dA*dG*dG*dT*dG*kG*kT*kT; antisense) [compound 799528]", "% Inhibition": 17}
{"substance": "799529 (kG*kA*kA*dT*dT*dT*d[5mC]*dT*d[5mC]*dT*dT*dG*d[5mC]*kA*kT*kT; antisense) [compound 799529]", "% Inhibition": 27}
{"substance": "799530 (kG*k[5mC]*kT*d[5mC]*dA*dA*dT*dG*dA*dG*dA*d[5mC]*dT*kG*kG*k[5mC]; antisense) [compound 799530]", "% Inhibition": 34}
{"substance": "799531 (k[5mC]*kT*kT*dT*dA*dG*d[5mC]*dA*dA*dT*dT*dT*d[5mC]*kA*kA*kA; antisense) [compound 799531]", "% Inhibition": 32}
{"substance": "799532 (kG*k[5mC]*kA*dG*dA*dA*dG*dG*d[5mC]*d[5mC]*dA*d[5mC]*d[5mC]*k[5mC]*k[5mC]*k[5mC]; antisense) [compound 799532]", "% Inhibition": 21}
{"substance": "799533 (kG*kA*kA*dT*dG*dA*dA*dG*dT*d[5mC]*d[5mC]*dA*dG*kA*k[5mC]*k[5mC]; antisense) [compound 799533]", "% Inhibition": 50}
{"substance": "799545 (kT*k[5mC]*k[5mC]*d[5mC]*dA*d[5mC]*d[5mC]*d[5mC]*dT*dG*dG*dT*dG*k[5mC]*kT*k[5mC]; antisense) [compound 799545]", "% Inhibition": 9}
{"substance": "799546 (kT*kA*k[5mC]*dT*dG*dT*dT*dG*dG*d[5mC]*dA*dG*dT*kG*k[5mC]*kT; antisense) [compound 799546]", "% Inhibition": 48}
{"substance": "799547 (kT*k[5mC]*k[5mC]*dT*dA*d[5mC]*dT*dG*dT*dT*dG*dG*d[5mC]*kA*kG*kT; antisense) [compound 799547]", "% Inhibition": 50}
{"substance": "799548 (k[5mC]*kT*k[5mC]*d[5mC]*dT*dA*d[5mC]*dT*dG*dT*dT*dG*dG*k[5mC]*kA*kG; antisense) [compound 799548]", "% Inhibition": 39}
{"substance": "799549 (kG*k[5mC]*kT*d[5mC]*d[5mC]*dT*dA*d[5mC]*dT*dG*dT*dT*dG*kG*k[5mC]*kA; antisense) [compound 799549]", "% Inhibition": 53}
{"substance": "799550 (kA*kG*k[5mC]*dT*d[5mC]*d[5mC]*dT*dA*d[5mC]*dT*dG*dT*dT*kG*kG*k[5mC]; antisense) [compound 799550]", "% Inhibition": 50}
{"substance": "799551 (kT*kT*kA*d[5mC]*dA*dG*d[5mC]*dT*d[5mC]*d[5mC]*dT*dA*d[5mC]*kT*kG*kT; antisense) [compound 799551]", "% Inhibition": 12}
{"substance": "799552 (kA*kG*kG*dG*dA*dA*d[5mC]*dA*dA*dT*dT*dA*d[5mC]*kA*kG*k[5mC]; antisense) [compound 799552]", "% Inhibition": 58}
{"substance": "799553 (k[5mC]*k[5mC]*k[5mC]*d[5mC]*dG*d[5mC]*dT*dA*dG*dG*dG*dA*dA*k[5mC]*kA*kA; antisense) [compound 799553]", "% Inhibition": 46}
{"substance": "799567 (k[5mC]*kT*kT*dT*dG*dA*dG*dT*dA*dA*dA*d[5mC]*dA*kA*kT*kA; antisense) [compound 799567]", "% Inhibition": 15}
{"substance": "799569 (k[5mC]*kT*k[5mC]*dT*dA*dG*dG*dT*d[5mC]*d[5mC]*d[5mC]*dT*d[5mC]*kT*kT*kT; antisense) [compound 799569]", "% Inhibition": 24}
{"substance": "799570 (kA*kA*kA*dA*dG*dA*dT*dG*d[5mC]*dA*dG*dT*dT*k[5mC]*kA*k[5mC]; antisense) [compound 799570]", "% Inhibition": 39}
{"substance": "799571 (k[5mC]*kA*kG*dA*dA*dA*dA*dG*dA*dT*dG*d[5mC]*dA*kG*kT*kT; antisense) [compound 799571]", "% Inhibition": 46}
{"substance": "799573 (kA*kA*kT*dA*dA*dA*dA*d[5mC]*d[5mC]*dA*dT*d[5mC]*dT*kA*kA*k[5mC]; antisense) [compound 799573]", "% Inhibition": 0}
{"substance": "799584 (kT*kA*kT*d[5mC]*dA*dA*dG*dA*dA*dG*dA*d[5mC]*dA*kA*kA*k[5mC]; antisense) [compound 799584]", "% Inhibition": 39}
{"substance": "799585 (kA*kG*kA*d[5mC]*dA*dA*dG*dA*dT*dG*dT*dT*dA*kT*k[5mC]*kA; antisense) [compound 799585]", "% Inhibition": 34}
{"substance": "799586 (kG*kA*kG*dG*dA*dG*dG*d[5mC]*dA*d[5mC]*dT*d[5mC]*dA*kG*kG*k[5mC]; antisense) [compound 799586]", "% Inhibition": 50}
{"substance": "799587 (kT*kT*k[5mC]*dA*d[5mC]*dA*dG*dG*dT*d[5mC]*dA*d[5mC]*dA*kT*kG*kG; antisense) [compound 799587]", "% Inhibition": 42}
{"substance": "799588 (kA*kA*kA*dA*dA*dG*d[5mC]*d[5mC]*d[5mC]*dA*d[5mC]*d[5mC]*d[5mC]*kA*kT*k[5mC]; antisense) [compound 799588]", "% Inhibition": 44}
{"substance": "799590 (k[5mC]*kT*kG*d[5mC]*dA*dG*dT*d[5mC]*dT*dT*d[5mC]*dT*dG*kA*kA*kG; antisense) [compound 799590]", "% Inhibition": 9}
{"substance": "799591 (kA*kT*kT*dA*dG*dT*dA*dA*dA*dT*d[5mC]*dA*dA*kG*kA*kG; antisense) [compound 799591]", "% Inhibition": 56}
{"substance": "799592 (kG*kG*kA*dA*dT*dT*dA*dG*dT*dA*dA*dA*dT*k[5mC]*kA*kA; antisense) [compound 799592]", "% Inhibition": 47}
{"system": "human SMAD7 mRNA", "assay": "Antisense inhibition of human SMAD7 mRNA expression in Hep3B cells by 3-10-3 cEt gapmers, 10,000 nM, electroporation (Example 2)", "assay_type": "cell-based", "settings": "Hep3B cells, electroporation, 10,000 nM antisense oligonucleotide, approximately 24 hours, RTS5062, relative to untreated control cells", "outline": "as §1", "units": {"% inhibition of SMAD7 mRNA expression": "%"}}
{"substance": "799535 (kA*kA*k[5mC]*dT*dT*dA*dA*dG*dG*d[5mC]*dA*dT*dA*kT*kA*kA; antisense) [compound 799535]", "% inhibition of SMAD7 mRNA expression": 42}
{"substance": "799536 (kA*k[5mC]*k[5mC]*dG*dA*dT*dG*d[5mC]*dA*dT*d[5mC]*d[5mC]*dA*kA*k[5mC]*kT; antisense) [compound 799536]", "% inhibition of SMAD7 mRNA expression": 50}
{"substance": "799537 (kG*kG*kG*d[5mC]*dA*d[5mC]*d[5mC]*dA*d[5mC]*dA*dA*dT*dG*kT*k[5mC]*kA; antisense) [compound 799537]", "% inhibition of SMAD7 mRNA expression": 3}
{"substance": "799538 (kT*kG*k[5mC]*dA*dG*dG*dA*dT*dG*dA*dG*dG*dA*kG*k[5mC]*kT; antisense) [compound 799538]", "% inhibition of SMAD7 mRNA expression": 29}
{"substance": "799539 (k[5mC]*k[5mC]*k[5mC]*dG*dT*d[5mC]*d[5mC]*dA*d[5mC]*dG*dG*dA*dA*k[5mC]*kG*kG; antisense) [compound 799539]", "% inhibition of SMAD7 mRNA expression": 41}
{"substance": "799541 (kT*kT*kA*dA*dT*dG*dA*d[5mC]*dA*d[5mC]*d[5mC]*dA*dA*kA*kG*kT; antisense) [compound 799541]", "% inhibition of SMAD7 mRNA expression": 55}
{"substance": "799542 (kG*kT*kT*dA*dA*dT*dG*dA*d[5mC]*dA*d[5mC]*d[5mC]*dA*kA*kA*kG; antisense) [compound 799542]", "% inhibition of SMAD7 mRNA expression": 30}
{"substance": "799554 (kT*kA*k[5mC]*d[5mC]*dT*dG*dT*dG*dA*dG*d[5mC]*d[5mC]*d[5mC]*kT*kG*kA; antisense) [compound 799554]", "% inhibition of SMAD7 mRNA expression": 0}
{"substance": "799555 (kT*kA*k[5mC]*d[5mC]*d[5mC]*d[5mC]*dG*dT*dG*d[5mC]*d[5mC]*dT*dG*kT*k[5mC]*kA; antisense) [compound 799555]", "% inhibition of SMAD7 mRNA expression": 51}
{"substance": "799557 (kA*kG*k[5mC]*d[5mC]*dA*dG*dT*dT*d[5mC]*dT*dT*dA*dG*kA*kA*kA; antisense) [compound 799557]", "% inhibition of SMAD7 mRNA expression": 28}
{"substance": "799558 (k[5mC]*kT*kT*d[5mC]*dT*dA*dT*dT*d[5mC]*dG*dA*dG*d[5mC]*kT*kG*k[5mC]; antisense) [compound 799558]", "% inhibition of SMAD7 mRNA expression": 47}
{"substance": "799559 (kA*kG*k[5mC]*dT*dT*d[5mC]*dT*dA*dT*dT*d[5mC]*dG*dA*kG*k[5mC]*kT; antisense) [compound 799559]", "% inhibition of SMAD7 mRNA expression": 37}
{"substance": "799560 (kG*kG*k[5mC]*dA*d[5mC]*dA*dG*d[5mC]*dT*dT*d[5mC]*dT*dA*kT*kT*k[5mC]; antisense) [compound 799560]", "% inhibition of SMAD7 mRNA expression": 18}
{"substance": "799561 (kG*kG*kA*dA*dT*dG*dA*dA*d[5mC]*dT*dT*dT*dG*k[5mC]*k[5mC]*kT; antisense) [compound 799561]", "% inhibition of SMAD7 mRNA expression": 45}
{"substance": "799562 (kG*kA*kA*dG*dA*dG*dG*dA*dG*dA*dG*d[5mC]*d[5mC]*kG*kG*kG; antisense) [compound 799562]", "% inhibition of SMAD7 mRNA expression": 39}
{"substance": "799574 (k[5mC]*kA*kT*dT*d[5mC]*dA*dG*dG*dG*dT*dT*dT*dA*kA*kA*kA; antisense) [compound 799574]", "% inhibition of SMAD7 mRNA expression": 7}
{"substance": "799575 (k[5mC]*kA*k[5mC]*dA*dT*dT*d[5mC]*dA*dG*dG*dG*dT*dT*kT*kA*kA; antisense) [compound 799575]", "% inhibition of SMAD7 mRNA expression": 38}
{"substance": "799576 (kG*kA*kA*dA*dG*dG*dA*d[5mC]*d[5mC]*d[5mC]*dT*dT*dT*k[5mC]*kA*kA; antisense) [compound 799576]", "% inhibition of SMAD7 mRNA expression": 25}
{"substance": "799578 (kA*k[5mC]*k[5mC]*dT*dT*d[5mC]*d[5mC]*dG*dA*dA*dA*dG*dG*kA*k[5mC]*k[5mC]; antisense) [compound 799578]", "% inhibition of SMAD7 mRNA expression": 76}
{"substance": "799579 (kA*kA*k[5mC]*d[5mC]*dT*dT*d[5mC]*d[5mC]*dG*dA*dA*dA*dG*kG*kA*k[5mC]; antisense) [compound 799579]", "% inhibition of SMAD7 mRNA expression": 51}
{"substance": "799580 (kA*kA*kA*d[5mC]*d[5mC]*dT*dT*d[5mC]*d[5mC]*dG*dA*dA*dA*kG*kG*kA; antisense) [compound 799580]", "% inhibition of SMAD7 mRNA expression": 33}
{"substance": "799581 (k[5mC]*kA*kA*dA*d[5mC]*d[5mC]*dT*dT*d[5mC]*d[5mC]*dG*dA*dA*kA*kG*kG; antisense) [compound 799581]", "% inhibition of SMAD7 mRNA expression": 0}
{"substance": "799582 (kA*k[5mC]*kA*dA*dA*d[5mC]*d[5mC]*dT*dT*d[5mC]*d[5mC]*dG*dA*kA*kA*kG; antisense) [compound 799582]", "% inhibition of SMAD7 mRNA expression": 19}
